Measured values from US12697325B2 (TENNOR THERAPEUTICS (SUZHOU) LIMITED, priority 2021, dated 2026).

What was measured:
[1] = test system: Acinetobacter baumannii clinical strains; assay: Information of drug resistance of 10 clinical strains; assay type: cell-based; parameters: key: S: Drug Susceptible; I: Drug Intermediate; R: Drug Resistant
[2] = test system: Acinetobacter baumannii strains; assay: Minimum inhibitory concentration (CLSI M07), Example 2, 20 strains; assay type: cell-based
Protocol: (§1) The minimum inhibitory concentration (MIC) was determined in accordance with the requirements of the Clinical and Laboratory Standards Institute (CLSI) M07 (for aerobic bacteria).
3.1 The compounds were diluted with DMSO up to 100 times of the highest concentration tested.
The steps of manual dilution are as follows (example): firstly, the compound or antibiotic was diluted to 100 times of the maximum final concentration tested, then 60 μL of compound mother liquor was added to the first column of the 96-well plate, and 30 μL of DMSO was added to each well in the second to the 12th column; 30 μL of the liquid was transferred from the first column to the second column. After being pipetted up and down to even, 30 μL was transferred to the third column, and was diluted in sequence at a 2-fold gradient for a total of 10 times; then 30 μL was removed from each well in the 11th column, then a compound solution diluted at 2-fold gradient was obtained and 1 μL was transferred to a 96-well test plate.
Aerobic bacteria: the strains were inoculated on MHA one day in advance and incubated overnight at 37° C. On the day of the assay, 5-6 single colonies were picked and suspended evenly in saline, and the bacterial concentration was adjusted to the turbidity of 0.5 McFarland standard (concentration is about 1×10^8 CFU/mL). The bacterial suspension was diluted at 200-fold with the corresponding liquid culture medium (Table 1), i.e., the bacterial concentration was ~5×10^5 CFU/ml, and then 100 μL of the liquid was transferred to a 96-well round bottom plate (the 96-well plate with compound prepared in 4.2, Echo method) to obtain the test plate. If the compound was manually diluted, then 99 μL of the solution was transferred into a 96-well round bottom plate. The 96-well round bottom plate obtained above was placed into an incubator at 37° C. and 85% humidity to incubate for 20 h.

[3] = test system: clinical strains of Acinetobacter baumannii; assay: Minimum inhibitory concentration (CLSI M07), Example 1, clinical strains; assay type: cell-based; conditions: combination MIC = sum of the concentrations of the two compounds
Protocol: as §1
3.1 The compounds were diluted with water up to 100 times of the highest concentration tested.
The dilution steps are as follows: first dilute the compounds or antibiotics to 100 times of the highest final concentration tested, and then:
A 50 μL of sterile water and 50 μL of avibactam sodium mother liquid were added into the A row of the second 96-well plate, and 50 μL of water was added into each of the remaining wells. A 50 μL of liquid was pipetted from the A row and added into the B row; after being pipetted up and down to even, 50 μL of the solution was pipetted and added to the C row, and diluted in a 2-fold gradient in turn for a total of 6 times and then, 50 μL was removed from each well of the G row to obtain the compound solution diluted to a 2-fold gradient and then 4 μL was transferred to a 96-well test plate.
Aerobic bacteria: the strains were inoculated on MHA one day in advance and incubated overnight at 37° C. On the day of the assay, 5-6 single colonies were picked and suspended evenly in saline, and the bacterial concentration was adjusted to the turbidity of 0.5 McFarland standard (concentration is about 1×10^8 CFU/mL). The bacterial suspension was diluted 200 times with the corresponding liquid culture medium (Table 1), i.e., at a bacterial concentration of ~5×10^5 CFU/ml, then 192 μL was transferred to a 96-well round bottom plate to obtain the test plate. Then, the 96-well round bottom plate obtained above was placed into an incubator at 37° C. and 85% humidity to incubate for 20 h.

[4] = Pharmacokinetics in plasma and bronchoalveolar lavage fluid of female CD-1 mice; assay type: in vivo; conditions: mouse, in vivo
Protocol: An appropriate amount of the test drug was accurately weighed and mixed with the appropriate volume of vehicle (5% DMSO+0.5% Tween 80 in normal saline) to obtain a clear solution for the test in Table 9. The formulation solution for injection was prepared to sterile filtration through a 0.22 μm filter prior to administration. The mice were dosed with the drug within 30 min after the formulated solution for injection was prepared. A 1.5 mL of the formulation solution for injection was transferred into a polypropylene microcentrifuge tube for dose verification by LC/UV or LC-MS/MS.
All blood samples were transferred to pre-frozen EDTA-K2 tubes and placed on wet ice until centrifugation. […]
Plasma: approximately 100 μL of blood sample was transferred into pre-cooled commercial EDTA-K2 tubes and placed on wet ice until centrifugation. After the blood samples were centrifuged at approximately 4° C. and 3, 200 g for 10 min, plasma was collected and transferred to pre-labeled 96-well plates or polypropylene tubes, flash frozen on dry ice, and stored at ≤−60° C. until the analysis by LC-MS/MS.
Serum: approximately 100 μL of blood sample was transferred into a tube without anticoagulant and placed on wet ice for approximately 30 min and centrifuged at 4° C. and 3,000 g for 10 min, and the serum was collected and transferred into pre-labeled PP tubes placed on wet ice. After the completion of all the collections, serum samples were stored at −60° C. until being sent to the animal experimental team to determine urea concentration.
Bronchoalveolar lavage fluid (BALF): pre-cooled tracheo-alveolar lavage fluid was injected into the trachea or predefined bronchi. After a full expansion of the lung tissue, the lavage fluid was slowly drawn out with a syringe 30 s later. The lung was lavaged three times. During the last lavage, the lung tissue was gently squeezed to restore the fluid. To prevent contamination of other lung tissues, the corresponding bronchi were ligated. Both lungs of the mice were perfused with 0.8 mL.
[…] Approximately 200 μL of the BALF samples were transferred into a polypropylene tube, rapidly frozen on dry ice, maintained at ≤−60° C., and sent to the animal experimental team to determine urea concentration. The remaining BALF samples (approximately 600 μL) were rapidly frozen on dry ice and maintained at ≤−60° C. until being submitted for drug concentration analysis by LC-MS/MS.

Compound: NCC[C@H](O)C(=O)N[C@@H]1C[C@H](N)[C@@H](O[C@H]2O[C@H](CN)[C@@H](O)[C@H](O)[C@H]2O)[C@H](O)[C@H]1O[C@H]1O[C@H](CO)[C@@H](O)[C@H](N)[C@H]1O [Amikacin]
- Drug resistance ([1]; strain TNP041702): R
- Drug resistance ([1]; strain TNP041703): R
- Drug resistance ([1]; strain TNP041704): R
- Drug resistance ([1]; strain TNP041705): R
- Drug resistance ([1]; strain TNP041706): S
- Drug resistance ([1]; strain TNP041707): R
- Drug resistance ([1]; strain TNP041708): S
- Drug resistance ([1]; strain TNP041709): R
- Drug resistance ([1]; strain TNP041710): R
- Drug resistance ([1]; strain TNP041711): R

Compound: NC(=O)[C@@H]1CC[C@@H]2CN1C(=O)N2OS(=O)(=O)[O-].[Na+] [Avibactam sodium, avibactam sodium]
- MIC50 ([2]; Example 2, 20 strains): >128 µg/mL
- MIC90 ([2]; Example 2, 20 strains): >128 µg/mL
- MIC range ([2]; Example 2, 20 strains): >128 µg/mL
- MIC ([2]; strain ARLG-1791): >128 µg/mL
- MIC ([2]; strain ARLG-1809): >128 µg/mL
- MIC ([2]; strain ARLG-1852): >128 µg/mL
- MIC ([2]; strain ARLG-1853): >128 µg/mL
- MIC ([2]; strain ARLG-1881): >128 µg/mL
- MIC ([2]; strain ATCC 17978): >128 µg/mL
- MIC ([2]; strain ATCC 19606): >128 µg/mL
- MIC ([2]; strain ATCC-BAA-1605): >128 µg/mL
- MIC ([2]; strain ATCC-BAA-1789): >128 µg/mL
- MIC ([2]; strain ATCC-BAA-1790): >128 µg/mL
- MIC ([2]; strain ATCC-BAA-1791): >128 µg/mL
- MIC ([2]; strain ATCC-BAA-1792): >128 µg/mL
- MIC ([2]; strain ATCC-BAA-1793): >128 µg/mL
- MIC ([2]; strain ATCC-BAA-1794): >128 µg/mL
- MIC ([2]; strain ATCC-BAA-1795): >128 µg/mL
- MIC ([2]; strain ATCC-BAA-1796): >128 µg/mL
- MIC ([2]; strain ATCC-BAA-1797): >128 µg/mL
- MIC ([2]; strain ATCC-BAA-1798): >128 µg/mL
- MIC ([2]; strain ATCC-BAA-1799): >128 µg/mL
- MIC ([2]; strain ATCC-BAA-1800): >128 µg/mL
- MIC of the strain BAA-1795 (component in the combination) ([2]; strain BAA-1795, sulbactam/avibactam 4:1, concentration of the named component): 2 µg/mL
- MIC50 [3]: >32 µg/mL
- MIC90 [3]: >32 µg/mL
- MIC range [3]: >32 µg/mL
- AUC Ratio [4]: 0.0257
- Part of the dosing interval with free plasma concentration above the MIC of strain BAA-1795 [4]: more than 50%
- Part of the dosing interval with plasma concentration above the MIC of strain BAA-1795 [4]: more than 50%
- AUC0-last, BALF ([4]; iv, 150 mg/kg): 1319 ng·h/mL
- AUC0-last, plasma ([4]; iv, 150 mg/kg): 51289 ng·h/mL
- Cl ([4]; iv, 150 mg/kg): 48.7 mL/min/kg
- MRT0-last, BALF ([4]; iv, 150 mg/kg): 103 min
- MRT0-last, plasma ([4]; iv, 150 mg/kg): 26.3 min
- T1/2, BALF ([4]; iv, 150 mg/kg): 45.7 min
- T1/2, plasma ([4]; iv, 150 mg/kg): 73.8 min

Compound: Cc1nnc(SCC2=C(C(=O)O)N3C(=O)[C@@H](NC(=O)Cn4cnnn4)[C@H]3SC2)s1 [Cefazolin]
- Drug resistance ([1]; strain TNP041702): R
- Drug resistance ([1]; strain TNP041703): R
- Drug resistance ([1]; strain TNP041704): R
- Drug resistance ([1]; strain TNP041705): R
- Drug resistance ([1]; strain TNP041706): R
- Drug resistance ([1]; strain TNP041707): R
- Drug resistance ([1]; strain TNP041708): R
- Drug resistance ([1]; strain TNP041709): R
- Drug resistance ([1]; strain TNP041710): R
- Drug resistance ([1]; strain TNP041711): R

Compound: CO/N=C(\C(=O)N[C@@H]1C(=O)N2C(C(=O)[O-])=C(C[N+]3(C)CCCC3)CS[C@H]12)c1csc(N)n1 [Cefepime]
- Drug resistance ([1]; strain TNP041702): R
- Drug resistance ([1]; strain TNP041703): R
- Drug resistance ([1]; strain TNP041704): R
- Drug resistance ([1]; strain TNP041705): R
- Drug resistance ([1]; strain TNP041706): R
- Drug resistance ([1]; strain TNP041707): R
- Drug resistance ([1]; strain TNP041708): R
- Drug resistance ([1]; strain TNP041709): R
- Drug resistance ([1]; strain TNP041710): R
- Drug resistance ([1]; strain TNP041711): R

Compound: CO/N=C(\C(=O)N[C@@H]1C(=O)N2C(C(=O)O)=C(COC(C)=O)CS[C@H]12)c1csc(N)n1 [Cefotaxime]
- Drug resistance ([1]; strain TNP041702): R
- Drug resistance ([1]; strain TNP041703): R
- Drug resistance ([1]; strain TNP041704): R
- Drug resistance ([1]; strain TNP041705): R
- Drug resistance ([1]; strain TNP041706): R
- Drug resistance ([1]; strain TNP041707): R
- Drug resistance ([1]; strain TNP041708): R
- Drug resistance ([1]; strain TNP041709): R
- Drug resistance ([1]; strain TNP041710): R
- Drug resistance ([1]; strain TNP041711): R
